# In the supplement of paper PMC11208160:
# Assay: recombinant barcode read abundance after kanamycin selection (control-corrected) (log10(CPM+1)); higher = more efficient recombination; sequences stand for … in AGTGCAGAGAAAATCGGCCAGTTTTCTCTGCCTGCAGTCCGCATGCCGT…AGATTTATGCAGCGGACTGCCTTTCTCCCAAAGTGATAAACCGGACAGTATCATGGACCGGTTTTCCCGGTAATCCGTATTTGCAAGGTTGGTTTCACT; site = the 11-nt target
# Summary of the method: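 Pooled oligos, each joining a target to an IS621 bridge RNA target-binding loop, were cloned and co-electroporated with a donor plasmid into E. coli. Selective plates carried chloramphenicol/ampicillin/kanamycin and 0.1 mM IPTG, while chloramphenicol/ampicillin LB agar served as control, with two replicates of each. Recombination efficiency rests on averaged, control-corrected counts per million of barcodes at recombinant junctions, shown as log10(CPM+1).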
# 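Further: IS621 recombinase and bridge RNA in Escherichia coli cells.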
row,Sequence,recombinant barcode read abundance (log10)
1,GGCACCACTTGGGTTCTAACCTGTTGCCT (site GGCACTACTAG),0.0174
2,GGCACTACTTGGGTTCTAACCTGTTGCCT (site GGCACAACTAG),0.0867
3,GGCACTACTTGGGTTCTAACCTGTTGCCT (site GGCACCACTAG),0.716
4,GGCACTACTTGGGTTCTAACCTGTTGCCT (site GGCACGACTAG),0.166
5,GGCACTACTTGGGTTCTAACCTGTTGCCT (site GGCACTACTAG),0.392
6,GGCAGCTCTTGGGTTCTAACCTGTTGCTT (site GGCAGATCTAA),0.367
7,GGCAGCTCTTGGGTTCTAACCTGTTGCTT (site GGCAGCTCTAA),0.281
8,GGCAGCTCTTGGGTTCTAACCTGTTGCTT (site GGCAGGTCTAA),0.302
9,GGCAGCTCTTGGGTTCTAACCTGTTGCTT (site GGCAGTTCTAA),0.0524
10,GGCAGTCCTTGGGTTCTAACCTGTTGCCT (site GGCAGTCCTAA),0.111
11,GGCAGTCCTTGGGTTCTAACCTGTTGCCT (site GGCAGTCCTAG),0.206
12,GGCATCCCTTGGGTTCTAACCTGTTGCTA (site GGCATCCCTTA),0.654
13,GGCATCCCTTGGGTTCTAACCTGTTGCTA (site TTACAGGCTCG),0.205
14,GGCATTCCTTGGGTTCTAACCTGTTGCCT (site GGCACTCCTAG),0.0331
15,GGCATTCCTTGGGTTCTAACCTGTTGCCT (site GGCATTCCTAG),0.0435
16,GGCCTCCCTTGGGTTCTAACCTGTTGCCT (site GGCATCCCTAG),0.242
17,GGCCTCCCTTGGGTTCTAACCTGTTGCCT (site GGCCTCCCTAG),0.977
18,GGCCTCCCTTGGGTTCTAACCTGTTGCCT (site GGCGTCCCTAG),0.947
19,GGCCTCCCTTGGGTTCTAACCTGTTGCCT (site GGCTTCCCTAG),0.0579
20,GGCCTGCCTTGGGTTCTAACCTGTTGCCT (site GGCCTGCCTAG),1.31
21,GGCCTGCCTTGGGTTCTAACCTGTTGCCT (site GTCATGCCTAG),0.0864
22,GGCGAACCTTGGGTTCTAACCTGTTGCAT (site GACGATCCTAT),0.126

row,Sequence,recombinant barcode read abundance (log10)
1,GGCGAACCTTGGGTTCTAACCTGTTGCAT (site GGCGAACCTAT),1.82
2,GGCGGTACTTGGGTTCTAACCTGTTGCCT (site GGCGGTACTAG),1.12
3,GGCGGTACTTGGGTTCTAACCTGTTGCCT (site GGCTGCACTAG),0.197
4,GGCGTCCCTTGGGTTCTAACCTGTTGCCT (site GGCATCCCTAG),0.284
5,GGCGTCCCTTGGGTTCTAACCTGTTGCCT (site GGCCTCCCTAG),0.286
6,GGCGTCCCTTGGGTTCTAACCTGTTGCCT (site GGCGTCCCTAG),1.3
7,GGCGTCCCTTGGGTTCTAACCTGTTGCCT (site GGCTTCCCTAG),0.0801
8,GGCTAGCCTTGGGTTCTAACCTGTTGCCT (site GGCTAGCCTAG),0.423
9,GGCTAGCCTTGGGTTCTAACCTGTTGCCT (site TGTTAGCCTAG),0
10,GGCTCCTCTTGGGTTCTAACCTGTTGCAT (site GGATCCTCTAT),0.0148
11,GGCTCCTCTTGGGTTCTAACCTGTTGCAT (site GGCTCCTCTAT),0.907
12,GGCTCCTCTTGGGTTCTAACCTGTTGCCA (site GGCTCCTCTTG),0.674
13,GGCTCCTCTTGGGTTCTAACCTGTTGCCA (site GGTTCATCTTG),0.013
14,GGCTGCCCTTGGGTTCTAACCTGTTGCCT (site GACTGCCCTAG),0.156
15,GGCTGCCCTTGGGTTCTAACCTGTTGCCT (site GCCTGCCCTAG),0.57
16,GGCTGCCCTTGGGTTCTAACCTGTTGCCT (site GGCTGCCCTAG),0.258
17,GGCTGCCCTTGGGTTCTAACCTGTTGCCT (site GTCTGCCCTAG),0.149
18,GGGAACCCTTGGGTTCTAACCTGTTGCTC (site GGGAACCCTAA),0.131
19,GGGAACCCTTGGGTTCTAACCTGTTGCTC (site GGGAACCCTCA),0.659
20,GGGAACCCTTGGGTTCTAACCTGTTGCTC (site GGGAACCCTGA),1.16
21,GGGAACCCTTGGGTTCTAACCTGTTGCTC (site GGGAACCCTTA),0.509
22,GGGAACCCTTGGGTTCTAACCTGTTGCTT (site GGGAACCCTAA),1.25

row,Sequence,recombinant barcode read abundance (log10)
1,GGGAACCCTTGGGTTCTAACCTGTTGCTT (site GGGAACCCTCA),0.386
2,GGGAACCCTTGGGTTCTAACCTGTTGCTT (site GGGAACCCTGA),0.0941
3,GGGAACCCTTGGGTTCTAACCTGTTGCTT (site GGGAACCCTTA),0.149
4,GGGAAGACTTGGGTTCTAACCTGTTGCCT (site GGAAAGACTAG),1.56
5,GGGAAGACTTGGGTTCTAACCTGTTGCCT (site GGCAAGACTAG),0.0845
6,GGGAAGACTTGGGTTCTAACCTGTTGCCT (site GGGAAGACTAG),2.55
7,GGGAAGACTTGGGTTCTAACCTGTTGCCT (site GGTAAGACTAG),0.333
8,GGGAATGCTTGGGTTCTAACCTGTTGCCT (site GGGAACGCTAG),0.108
9,GGGAATGCTTGGGTTCTAACCTGTTGCCT (site GGGAATGCTAG),2.35
10,GGGACAGCTTGGGTTCTAACCTGTTGCCT (site GAGACAACTAG),0.15
11,GGGACAGCTTGGGTTCTAACCTGTTGCCT (site GGGACAGCTAG),1.12
12,GGGACCTCTTGGGTTCTAACCTGTTGCGT (site GGGACCTCTAC),2.68
13,GGGACCTCTTGGGTTCTAACCTGTTGCGT (site GGGACCTCTCC),0.201
14,GGGACGCCTTGGGTTCTAACCTGTTGCAT (site GAGCCGCCTAT),0.0802
15,GGGACGCCTTGGGTTCTAACCTGTTGCAT (site GGGACGCCTAT),1.17
16,GGGATACCTTGGGTTCTAACCTGTTGCTA (site GGGATACCTTA),1.37
17,GGGATACCTTGGGTTCTAACCTGTTGCTA (site TATGGTACTAC),0.292
18,GGGCACTCTTGGGTTCTAACCTGTTGCGT (site GGGCACTCTAA),0.559
19,GGGCACTCTTGGGTTCTAACCTGTTGCGT (site GGGCACTCTAC),2.97
20,GGGCACTCTTGGGTTCTAACCTGTTGCGT (site GGGCACTCTAG),0.161
21,GGGCACTCTTGGGTTCTAACCTGTTGCGT (site GGGCACTCTAT),2.27
22,GGGCTCACTTGGGTTCTAACCTGTTGCCT (site GGGCTCACTAG),0.983

row,Sequence,recombinant barcode read abundance (log10)
1,GGGCTCACTTGGGTTCTAACCTGTTGCCT (site GGTCCCACTAG),0.184
2,GGGCTCCCTTGGGTTCTAACCTGTTGCCG (site GGGCTCCCTCG),1.92
3,GGGCTCCCTTGGGTTCTAACCTGTTGCCG (site TACAATTCTAT),0.128
4,GGGCTTACTTGGGTTCTAACCTGTTGCCT (site GAGCTTACTAG),0.695
5,GGGCTTACTTGGGTTCTAACCTGTTGCCT (site GCGCTTACTAG),0.362
6,GGGCTTACTTGGGTTCTAACCTGTTGCCT (site GGGCTTACTAG),0.178
7,GGGCTTACTTGGGTTCTAACCTGTTGCCT (site GTGCTTACTAG),0.325
8,GGGGACCCTTGGGTTCTAACCTGTTGCGG (site GGGGACCCTAC),2.34
9,GGGGACCCTTGGGTTCTAACCTGTTGCGG (site GGGGACCCTCC),3.01
10,GGGGACCCTTGGGTTCTAACCTGTTGCGG (site GGGGACCCTGC),0.667
11,GGGGACCCTTGGGTTCTAACCTGTTGCGG (site GGGGACCCTTC),1.55
12,GGGGACCCTTGGGTTCTAACCTGTTGCGT (site GGGGACCCTAC),3.4
13,GGGGACCCTTGGGTTCTAACCTGTTGCGT (site GGGGACCCTCC),1.46
14,GGGGACCCTTGGGTTCTAACCTGTTGCGT (site GGGGACCCTGC),1.44
15,GGGGACCCTTGGGTTCTAACCTGTTGCGT (site GGGGACCCTTC),1.18
16,GGGGAGTCTTGGGTTCTAACCTGTTGCTT (site GGGGAGCCTCA),0.16
17,GGGGAGTCTTGGGTTCTAACCTGTTGCTT (site GGGGAGTCTAA),2.26
18,GGGGCAACTTGGGTTCTAACCTGTTGCTA (site CGGGCTACTTA),0.0424
19,GGGGCAACTTGGGTTCTAACCTGTTGCTA (site GGGGCAACTTA),0.388
20,GGGGCACCTTGGGTTCTAACCTGTTGCCT (site GGGGCACCTAA),0.216
